Measured values from patent US20070099856A1, “Combined treatment with docetaxel and an epidermal growth factor receptor kinase inhibitor using an intermittent dosing regimen” (priority 2005, published 2007).

Assays:
[1] = tested on: NSCLC; conditions: first-line, in combination with standard chemotherapy, NSCLC phase III; cited from earlier work
[2] = tested on: patients with advanced solid tumors; assay: Phase I dose escalation Arm B: DOC every 21 days plus erlotinib days 2-16; format: in vivo, human
Description: (§1) One explanation is antagonism due to TKI-induced G1 arrest, reducing cell cycle phase-dependent activity of chemotherapy (see FIG. 1). We hypothesized that pharmacodynamic separation by intermittent delivery of HER1/EGFR TKI with chemotherapy might increase efficacy.
(§2) Erlotinib (TARCEVA™) was obtained from OSI Pharmaceuticals, Inc. Melville, N.Y.). Docetaxel (TAXOTERE®) is manufactured and sold by Aventis Pharmaceuticals Inc.

[3] = tested on: patients with advanced solid tumors; assay: Phase I dose escalation Arm A: DOC every 21 days plus weekly erlotinib days 2, 9, 16; format: in vivo, human
Description: as §1, §2

[4] = tested on: advanced, treatment-refractory NSCLC; conditions: monotherapy, phase III; cited from earlier work

| SMILES | Survival [1] | Arm B MTD, erlotinib ([2]; day 2-16, combined with DOC 70 mg/m^2) | Arm A MTD, erlotinib ([3]; weekly (days 2, 9, 16), combined with DOC 70 mg/m^2) | Survival [4] | Arm B MTD, DOC ([2]; IV every 21 days, combined with erlotinib 200 mg day 2-16) | Arm A MTD, DOC ([3]; IV every 21 days, combined with weekly erlotinib 600 mg) |
| --- | --- | --- | --- | --- | --- | --- |
| COc1cc2ncnc(Nc3ccc(F)c(Cl)c3)c2cc1OCCCN1CCOCC1 [gefitinib] | did not improve survival |  |  |  |  |  |
| C#Cc1cccc(Nc2ncnc3cc(OCCOC)c(OCCOC)cc23)c1 [erlotinib, [6,7-bis(2-methoxyethoxy)-4-quinazolin-4-yl]-(3-ethynylphenyl)amine] | did not improve survival | 200 mg | 600 mg | significantly prolonged survival |  |  |
| CC(=O)O[C@@]12CO[C@@H]1C[C@H](O)[C@@]1(C)C(=O)[C@H](O)C3=C(C)[C@@H](OC(=O)[C@H](O)[C@@H](NC(=O)OC(C)(C)C)c4ccccc4)C[C@@](O)([C@@H](OC(=O)c4ccccc4)[C@H]21)C3(C)C [DOC, docetaxel] |  |  |  |  | 70 mg/m^2 | 70 mg/m^2 |
